Here are results for one molecule from publication PMC12186257, “Serendipitous and Systematic Chemoproteomic Discovery of MBLAC2, HINT1, and NME1‑4 Inhibitors from Histone Deacetylase-Targeting Pharmacophores” (ACS Chemical Biology, 2025).

One test deals with T1, GATD3A (Homo sapiens, UniProt P0DPI2).
T1 construct: incubated at increasing concentrations with a mixture of lysates of MV4–11 and SW620 cells; endogenous in cells; host or cells: mixed lysate of MV4-11 and SW620 cells
T1 sequence (P0DPI2 42-268): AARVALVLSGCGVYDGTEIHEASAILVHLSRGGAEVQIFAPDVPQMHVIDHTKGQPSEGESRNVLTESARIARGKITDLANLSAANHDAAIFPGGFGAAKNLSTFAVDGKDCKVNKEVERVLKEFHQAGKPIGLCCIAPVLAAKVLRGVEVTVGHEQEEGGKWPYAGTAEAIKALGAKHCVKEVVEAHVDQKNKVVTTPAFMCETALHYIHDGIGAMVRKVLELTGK
The test can be described thus: chemoproteomic competition assay (MV4-11/SW620 lysate, iA/iC/iQ beads, MS readout). Type of test: binding. The settings on record: nine-dose competition assay; range stated for ALDH2 and GATD3A together. As to the method: (§1) MBLAC2 is a metalloenzyme predicted to harbor one or two Zn^2+ ions in its active site. […] In this assay, compounds of interest are incubated at increasing concentrations with a mixture of lysates of MV4–11 and SW620 cells. The compound-treated lysates are then mixed with bead-immobilized hydroxamic acid-containing compounds iA, iC, and iQ (immobilized Quisinostat), which pull down compound-binding proteins such as HDACs, MBLAC2, ISOC1/2, ALDH2, and GATD3A (Figure a) that can be identified and quantified by mass spectrometry (MS). Proteins targeted by the library compounds in a preincubation step are prevented from being pulled down by the immobilized probes, leading to a dose-dependent reduction in MS signal. Initially, 12 metal-chelating compounds were profiled at two concentrations (10 μM and 100 μM) (Figure S3).
(§2) Chemoproteomic competition assays
(§3) Sample preparation. […]
(§4) LC-MS/MS. The different sample types were measured with different LC-MS/MS settings. MBLAC2 2-dose competition assays were measured with the Lumos1 setup, MBLAC2 9-dose competition assays were measured with the Lumos2 setup, and kinobeads assays were measured with the Eclipse setup.
(§5) Peptides were analyzed via LC–MS/MS on a Dionex Ultimate3000 nano HPLC coupled to either one of two Orbitrap Fusion Lumos mass spectrometers, or to an Orbitrap Eclipse mass spectrometer, operated via the Thermo Scientific Xcalibur software. […]
(§6) In Lumos settings, up to 12 peptide precursors were isolated in (isolation width of 1.2 Th for Lumos1 and 1.7 for Lumos2, maximum injection time of 75 ms, AGC value of 1e5 for Lumos1 and 2e5 for Lumos2), fragmented by HCD using 30% normalized collision energy (NCE) and analyzed in the Orbitrap at a resolution of 15,000 (Lumos2) or 30,000 (Lumos1). […] Peptides were isolated in the quadrupole with an isolation offset of 1.2 (isolation width of 1.2 Th, maximum injection time of 54 ms, AGC target of 200%) and fragmented by HCD with an NCE of 30% and analyzed in the Orbitrap at a resolution of 30,000. […]

For another test, the target named is T2, ALDH2 (Homo sapiens, UniProt P05091).
T2 construct: incubated at increasing concentrations with a mixture of lysates of MV4–11 and SW620 cells; endogenous in cells; host or cells: mixed lysate of MV4-11 and SW620 cells
T2 sequence (P05091 18-517): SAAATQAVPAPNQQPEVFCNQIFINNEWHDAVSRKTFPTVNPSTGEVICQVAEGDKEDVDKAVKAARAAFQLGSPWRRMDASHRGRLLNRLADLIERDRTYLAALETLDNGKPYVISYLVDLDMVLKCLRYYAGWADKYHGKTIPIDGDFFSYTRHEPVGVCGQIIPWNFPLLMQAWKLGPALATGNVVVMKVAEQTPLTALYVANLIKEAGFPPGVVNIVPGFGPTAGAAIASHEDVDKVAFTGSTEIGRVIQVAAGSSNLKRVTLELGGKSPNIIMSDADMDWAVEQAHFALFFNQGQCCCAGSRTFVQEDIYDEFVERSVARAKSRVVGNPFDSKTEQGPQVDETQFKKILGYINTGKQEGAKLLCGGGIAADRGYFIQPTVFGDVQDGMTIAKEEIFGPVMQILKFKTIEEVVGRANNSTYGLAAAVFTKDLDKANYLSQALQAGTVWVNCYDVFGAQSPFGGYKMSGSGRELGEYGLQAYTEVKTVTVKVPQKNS
Described as above. Type of test: binding. The settings on record: nine-dose competition assay; range stated for ALDH2 and GATD3A together. On the procedure:
as §1, §2, §3, §4, §5, §6

The EC50 is the midpoint of the concentration-response curve. As for `CC(C)Cc1ccc(C(C)C(=O)NO)cc1` (centres unmarked) [Ibuproxam], the concentration giving a half-maximal response (EC50) at GATD3A and on ALDH2 was 23 to 30 µM each time.
